Converted amounts (≈) assume the structure as drawn.
Tests used:
Assay type in all cases: functional, cell-based
[1] = Cytotoxicity against human HBC4 cells after 48 hrs by sulforhodamine B assay; conditions: HBC4, 48 h
[2] = Cytotoxicity against human HBC5 cells after 48 hrs by sulforhodamine B assay; conditions: HBC5, 48 h
[3] = system: U-251; assay: Cytotoxicity against human U251 cells after 48 hrs by sulforhodamine B assay; conditions: U-251, 48 h
[4] = system: DU-145; assay: Cytotoxicity against human DU145 cells after 48 hrs by sulforhodamine B assay; conditions: DU-145, 48 h
[5] = system: LOX IMVI; assay: Cytotoxicity against human LOXIMVI cells after 48 hrs by sulforhodamine B assay
[6] = system: OVCAR-8; assay: Cytotoxicity against human OVCAR8 cells after 48 hrs by sulforhodamine B assay; conditions: OVCAR-8, 48 h
[7] = system: NCI-H522; assay: Cytotoxicity against human NCI-H522 cells after 48 hrs by sulforhodamine B assay; conditions: NCI-H522, 48 h
[8] = system: SF-268; assay: Cytotoxicity against human SF268 cells after 48 hrs by sulforhodamine B assay; conditions: SF-268, 48 h
[9] = system: HT-29; assay: Cytotoxicity against human HT-29 cells after 48 hrs by sulforhodamine B assay; conditions: HT-29, 48 h
[10] = system: NCI-H23; assay: Cytotoxicity against human NCI-H23 cells after 48 hrs by sulforhodamine B assay; conditions: NCI-H23, 48 h
[11] = system: OVCAR-3; assay: Cytotoxicity against human OVCAR-3 cells after 48 hrs by sulforhodamine B assay; conditions: OVCAR-3, 48 h
[12] = Cytotoxicity against human MKN1 cells after 48 hrs by sulforhodamine B assay; conditions: MKN-1, 48 h
[13] = system: A549; assay: Cytotoxicity against human A549 cells after 48 hrs by sulforhodamine B assay; conditions: A549, 48 h
[14] = system: SF-539; assay: Cytotoxicity against human SF539 cells after 48 hrs by sulforhodamine B assay; conditions: SF-539, 48 h
[15] = system: MKN-74; assay: Cytotoxicity against human MKN74 cells after 48 hrs by sulforhodamine B assay; conditions: MKN-74, 48 h
[16] = Cytotoxicity against human BSY1 cells after 48 hrs by sulforhodamine B assay; conditions: BSY-1, 48 h
[17] = system: HCC 2998; assay: Cytotoxicity against human HCC2998 cells after 48 hrs by sulforhodamine B assay; conditions: HCC 2998, 48 h
[18] = system: DMS-273; assay: Cytotoxicity against human DMS273 cells after 48 hrs by sulforhodamine B assay; conditions: DMS-273, 48 h
[19] = system: SNB-78; assay: Cytotoxicity against human SNB78 cells after 48 hrs by sulforhodamine B assay; conditions: SNB-78, 48 h
[20] = system: HCT-116; assay: Cytotoxicity against human HCT116 cells after 48 hrs by sulforhodamine B assay; conditions: HCT-116, 48 h
[21] = system: MKN-28; assay: Cytotoxicity against human MKN28 cells after 48 hrs by sulforhodamine B assay; conditions: MKN-28, 48 h
[22] = system: OVCAR-4; assay: Cytotoxicity against human OVCAR4 cells after 48 hrs by sulforhodamine B assay; conditions: OVCAR-4, 48 h
[23] = system: MDA-MB-231; assay: Cytotoxicity against human MDA-MB-231 cells after 48 hrs by sulforhodamine B assay; conditions: MDA-MB-231, 48 h
[24] = system: MCF7; assay: Cytotoxicity against human MCF7 cells after 48 hrs by sulforhodamine B assay; conditions: MCF7, 48 h
[25] = system: SNB-75; assay: Cytotoxicity against human SNB75 cells after 48 hrs by sulforhodamine B assay; conditions: SNB-75, 48 h
[26] = system: OVCAR-5; assay: Cytotoxicity against human OVCAR5 cells after 48 hrs by sulforhodamine B assay; conditions: OVCAR-5, 48 h
[27] = system: NCI-H460; assay: Cytotoxicity against human NCI-H460 cells after 48 hrs by sulforhodamine B assay; conditions: NCI-H460, 48 h
[28] = system: DMS-114; assay: Cytotoxicity against human DMS114 cells after 48 hrs by sulforhodamine B assay; conditions: DMS-114, 48 h
[29] = system: MKN-7; assay: Cytotoxicity against human MKN7 cells after 48 hrs by sulforhodamine B assay; conditions: MKN-7, 48 h
[30] = system: SK-OV-3; assay: Cytotoxicity against human SKOV3 cells after 48 hrs by sulforhodamine B assay; conditions: SK-OV-3, 48 h
[31] = system: HCT-15; assay: Cytotoxicity against human HCT15 cells after 48 hrs by sulforhodamine B assay; conditions: HCT-15, 48 h
[32] = system: NCI-H226; assay: Cytotoxicity against human NCI-H226 cells after 48 hrs by sulforhodamine B assay; conditions: NCI-H226, 48 h
[33] = system: KM12; assay: Cytotoxicity against human KM12 cells after 48 hrs by sulforhodamine B assay; conditions: KM12, 48 h
[34] = system: SF-295; assay: Cytotoxicity against human SF295 cells after 48 hrs by sulforhodamine B assay; conditions: SF-295, 48 h
[35] = system: PC-3; assay: Cytotoxicity against human PC3 cells after 48 hrs by sulforhodamine B assay; conditions: PC-3, 48 h
[36] = system: St-4; assay: Cytotoxicity against human St-4 cells after 48 hrs by sulforhodamine B assay; conditions: St-4, 48 h
[37] = system: ACHN; assay: Cytotoxicity against human ACHN cells after 48 hrs by sulforhodamine B assay
[38] = Cytotoxicity against human RXF631L cells after 48 hrs by sulforhodamine B assay; conditions: RXF 631, 48 h
[39] = system: MKN-45; assay: Cytotoxicity against human MKN45 cells after 48 hrs by sulforhodamine B assay; conditions: MKN-45, 48 h

Compound `C=C1C(=O)O[C@H]2/C=C(\C)CC/C=C(\C)CC/C=C(\C)CC[C@H]12` has an IC50 [1] of 1.62 µg/mL (≈ 5.39 µM), an IC50 [2] of 2.13 µg/mL (≈ 7.09 µM) and an IC50 [3] of 4.2 µg/mL (≈ 14 µM). The IC50 [4] was 3.3 µg/mL (≈ 11 µM), the IC50 [5] was 0.72 µg/mL (≈ 2.4 µM) and the IC50 [6] was 0.93 µg/mL (≈ 3.1 µM). The IC50 [7] was 0.66 µg/mL (≈ 2.2 µM), the IC50 [8] was 3 µg/mL (≈ 9.99 µM) and the IC50 [9] was 1.47 µg/mL (≈ 4.89 µM). It also gave an IC50 [10] of 3.6 µg/mL (≈ 12 µM), an IC50 [11] of 1.14 µg/mL (≈ 3.79 µM) and an IC50 [12] of 1.2 µg/mL (≈ 3.99 µM). It also gave an IC50 [13] of 1.26 µg/mL (≈ 4.19 µM), an IC50 [14] of 1.56 µg/mL (≈ 5.19 µM) and an IC50 [15] of 0.81 µg/mL (≈ 2.7 µM). For the same compound, the IC50 [16] was 1.35 µg/mL (≈ 4.49 µM), the IC50 [17] was 1.29 µg/mL (≈ 4.29 µM) and the IC50 [18] was 1.11 µg/mL (≈ 3.69 µM). The IC50 [19] was 1.59 µg/mL (≈ 5.29 µM), the IC50 [20] was 1.17 µg/mL (≈ 3.89 µM) and the IC50 [21] was 0.96 µg/mL (≈ 3.2 µM). The IC50 [22] was 2.25 µg/mL (≈ 7.49 µM), the IC50 [23] was 4.5 µg/mL (≈ 15 µM) and the IC50 [24] was 0.9 µg/mL (≈ 3 µM). The IC50 [25] was 3.3 µg/mL (≈ 11 µM), the IC50 [26] was 2.31 µg/mL (≈ 7.69 µM) and the IC50 [27] was 3.3 µg/mL (≈ 11 µM). For the same compound, the IC50 [28] was 3.6 µg/mL (≈ 12 µM), the IC50 [29] was 0.96 µg/mL (≈ 3.2 µM) and the IC50 [30] was 6.6 µg/mL (≈ 22 µM). For the same compound, the IC50 [31] was 2.01 µg/mL (≈ 6.69 µM), the IC50 [32] was 1.14 µg/mL (≈ 3.79 µM) and the IC50 [33] was 1.32 µg/mL (≈ 4.39 µM). It also gave an IC50 [34] of 3.9 µg/mL (≈ 13 µM), an IC50 [35] of 1.11 µg/mL (≈ 3.69 µM) and an IC50 [36] of 3.9 µg/mL (≈ 13 µM). It also gave an IC50 [37] of 3 µg/mL (≈ 9.99 µM), an IC50 [38] of 4.8 µg/mL (≈ 16 µM) and an IC50 [39] of 3 µg/mL (≈ 9.99 µM).

From ChEMBL document CHEMBL1150654, “New marine diterpenoids from the Okinawan soft coral Clavularia koellikeri” (J Nat Prod, 2002)
